# Results taken from patent publication US20220056123A1, “USE OF IL-1BETA BINDING ANTIBODIES” (NOVARTIS AG, priority 2018, published 2022).
# What was measured:
# 4T1 tumors = 4T1 tumors treated with 01BSUR and docetaxel; type: in vivo, Balb/c mice
# Experimental: Treatment of 4T1 Tumors with 01BSUR and Docetaxel Leads to Alterations in the Tumor Microenvironment. Female Balb/c mice with 4T1 tumors implanted subcutaneously (s.c.) on the right flank were treated 8 and 15 days post-tumor implant initiating when the tumors reached about 100 mm^3 with the isotype antibody, docetaxel, 01BSUR, or a combination of docetaxel and 01BSUR. […] 5 days after the first dose, tumors were harvested and analyzed for changes to the infiltrating immune cell populations. This was done again at the end point of the study, 4 days after the second dose.
# (§1) • I. Tumor models: The role of IL-1β in tumor immunity and efficacy of IL-1β blocking antibodies were tested in the following preclinical models: • Xenograft tumors in humanized mouse models: NSCLC (H358), TNBC (MDA-MB231) and CRC (SW480) • Syngeneic tumor models: TNBC (4T1) and lung (LL-2) cancer • II. […] Combination treatments include chemotherapeutic agent, docetaxel (6.25 mg/Kg QW IV), PD-1 pathway inhibitors (anti-human PD-1, pembrolizumab 10 mg/Kg Q5D IP or anti-mouse PD-1, clone 1D2 10 mg/Kg QW IP) and anti-mouse VEGF blocking antibody (clone 4G3, 5 mg/Kg Q5D) were used in combination with anti-IL-1β antibody. Appropriate isotype controls were used. In all experiments, dosing was initiated after tumor implantation. • III. Experimental readouts: activity of therapeutic agents in preclinical models were assessed by the following: • Tumor volume was determined by measurement with calipers throughout the course of the study. Tumor weights in milligrams were determined at end of study • Immunohistochemistry analysis was performed on FFPE NSCLC (H358) xenograft tissue • Changes in immune populations in peripheral blood in CRC (SW480) xenograft humanized model and tumors in syngeneic models (4T1 and LL-2) were assessed by flow cytometry using markers for T cell, myeloid populations
# LL2 = assay: Anti-IL-1β in combination with docetaxel in aggressive lung model (LL2); type: in vivo, mouse
# Experimental: Preclinical Data on the Efficacy of Canakinumab in Combination with Docetaxel in the Treatment of Cancer.
# as §1, with “In all experiments, dosing was initiated after tumor implantation. • III.” left out
# [1] = test system: HR-positive, HER2-negative advanced breast cancer; conditions: added to first-line endocrine therapy with tamoxifen/NSAI plus goserelin, pre- and peri-menopausal women; cited from earlier work
# [2] = test system: MDA-MB-231Luc2-TdTomato cells; assay: Spontaneous human breast cancer metastasis to human bone implants; type: in vivo, NOD SCID mice
# Experimental: FIG. 4. Pharmacological blockade of IL-1B inhibits spontaneous metastasis to human bone in vivo. Female NOD-SCID mice bearing two 0.5 cm^3 pieces of human femoral bone received intra-mammary injections of MDA-MB-231Luc2-TdTomato cells. […] All animals were culled 35 days following tumour cell injection. Effects on bone metastases (a) were assessed in vivo and immediately post-mortem by luciferase imaging and confirmed ex vivo on histological sections. Data are shown as numbers of photons per second emitted 2 minutes following sub-cutaneous injection of D-luciferin. Effects on numbers of tumour cells detected in the circulation are shown in (b). *=P<0.01. **=P<0.001. ***=P<0.0001.
# (§2) To model human breast cancer metastasis to human bone implants two human bone discs were implanted subcutaneously into 10-week old female NOD SCID mice (n=10/group) under isofluorane anaesthetic. Mice received an injection of 0.003 mg vetergesic and Septrin was added to the drinking water for 1 week following bone implantation. Mice were left for 4 weeks before injecting 1×10^5 MDA-MB-231 Luc2-TdTomato, MCF7 Luc2 or T47D Luc2 cells in 20% Martigel/79% PBS/1% toluene blue into the two hind mammary fat pads. Primary tumor growth and development of metastases was monitored weekly using an IVIS […] system (Caliper Life Sciences) following sub-cutaneous injection of 30 mg/ml D-luciferin (Invitrogen). On termination of experiments mammary tumors, circulating tumor cells, serum and bone metastases were resected. RNA was processed for downstream analysis by real time PCR, and cell lysates were taken for protein analysis and whole tissue for histology as previously described (Nutter et al., 2014; Ottewell et al., 2014a). […] Tumor cells, serum, and bone were subsequently resected for downstream analysis. Bone metastases were investigated following injection of 5×10^5 MDA-MB-231 GFP (control), MDA-MB-231-IV, MDA-MB-231-IL-1B-positive or MDA-MB-231-IL-1R1-positive cells into the lateral tail vein of 6 to 8-week old female BALB/c nude mice (n=12/group). Tumor growth in bones and lungs was monitored weekly by GFP imaging in live animals. Mice were culled 28 days after tumor cell injection at which timepoint hind limbs, lungs and serum were resected and processed for microcomputed tomography imaging (pCT), histology and ELISA analysis of bone turnover markers and circulating cytokines as described (Holen et al., 2016).
# Whole blood was centrifuged at 10,000×g for 5 minutes and the serum removed for ELISA assays. The cell pellet was re-suspended in 5 ml of FSM lysis solution (Sigma-Aldrich, Pool, UK) to lyse red blood cells. Remaining cells were re-pelleted, washed 3× in PBS and re-suspended in a solution of PBS/10% FCS. Samples from 10 mice per group were pooled prior to isolation of TdTomato positive tumor cells using a MoFlow High performance cell sorter (Beckman Coulter, Cambridge UK) with the […] laser line from a Coherent I-90C tenable argon ion (Coherent, Santa Clara, Calif.). TdTomato fluorescence was detected by a 555LP dichroic long pass and a 580/30 nm band pass filter. Acquisition and analysis of cells was performed using Summit 4.3 software. After sorting, cells were immediately placed in RNA protect cell reagent (Ambion, Paisley, Renfrew, UK) and stored at −80° C. before RNA extraction. For counting numbers of circulating tumor cells, TdTomato fluorescence was detected using a 561 nm laser and an YL1-A filter (585/16 emission filter). Acquisition and analysis of cells was performed using Attune N×T software.
# [3] = test system: CD34+ blood vessels in trabecular bone; assay: Bone microvasculature after suppression of IL-1β signalling; type: in vivo, BALB/c nude mice and C57BL/6 mice
# Experimental: FIG. 7. IL-1β in the bone microenvironment stimulates expansion of the bone metastatic niche. Effects of adding 40 pg/ml or 5 ng/ml recombinant IL-1β to MDA-MB-231 or T47D breast cancer cells is shown in (a) and effects on adding 20 pg/ml, 40 pg/ml or 5 ng/ml IL-1B on proliferation of HS5, bone marrow, or OB1, osteoblasts, are shown in b) and c) respectively. (d) IL-1 driven alterations to the bone vasculature was measured following CD34 staining in the trabecular region of the tibiae from 10-12-week old female IL-1R1 knockout mice. […] Data are shown as mean+/−SEM, *=P<0.01, **=P<0.001, ***=P<0.0001.
# FIG. 8. Suppression of IL-1β signalling affects bone integrity and vasculature. […] Data shown are mean+/−SEM, *=P<0.01, **=P<0.001, ***=P<0.0001 compared with control.
# as §2
# SW480 = assay: CRC SW480 xenograft in humanized BLT mice; type: in vivo, humanized mouse
# Experimental: as §1
# [4] = Gevokizumab clinical pharmacokinetics; type: in vivo, human
# hsCRP = hsCRP change after gevokizumab treatment in type 2 diabetes patients; type: in vivo, human; conditions: top dose 0.3 mg/kg (~20 mg) Q4W
# Description: FIG. 12. Clinical data after gevokizumab treatment (panel a) and its extrapolation to higher doses (panels b, c, and d). Adjusted percent change from baseline in hsCRP in patients in a). The hsCRP exposure-response relationship is shown in b) for six different hsCRP base line concentrations.
molecule,measurement,setting,value
CC(=O)O[C@@]12CO[C@@H]1C[C@H](O)[C@@]1(C)C(=O)[C@H](O)C3=C(C)[C@@H](OC(=O)[C@H](O)[C@@H](NC(=O)OC(C)(C)C)c4ccccc4)C[C@@](O)([C@@H](OC(=O)c4ccccc4)[C@H]21)C3(C)C [docetaxel],granulocytic MDSC,4T1 tumors; 5 days after a single dose,decrease in granulocytic MDSC
same,neutrophils in 4T1 tumors,4T1 tumors; 5 days after a single dose,decrease in neutrophils
same,CD4+ and CD8+ T cells expressing TIM-3,"4T1 tumors; four days after a second dose, vs control group",no change in the TIM-3 expressing cells
same,tumor growth,"4T1 tumors; treated days 8 and 15 post tumor implant, vs vehicle/isotype control",delay was enhanced
same,efficacy (tumor growth),LL2,modest efficacy
CN(C)C(=O)c1cc2cnc(Nc3ccc(N4CCNCC4)cn3)nc2n1C1CCCC1 [ribociclib],progression-free survival (PFS),[1],significantly prolonged progression-free survival
IL-1Ra: IL-1R antagonist (Anakinra) used to inhibit IL-1β signaling,mice with metastasis detected in human bone implants,"[2]; IL-1Ra 1 mg/kg daily, canakinumab sc every 14 days, from 7 days after tumor cell injection, control 7 out of 10",4 out of 10
same,size of bone metastases,"[2]; luciferase imaging, vs control group",smaller than those detected in the control group
same,tumor cells counted in whole blood,[2]; placebo 108 tumor cells/ml,3 tumor cells/ml
same,average length of CD34+ blood vessels in trabecular bone,"[3]; IL-1Ra 1 mg/kg daily (BALB/c nude), canakinumab single dose (C57BL/6), p<0.01",reduced the average length
same,endothelin 1 concentration (ELISA),"[3]; compared with control, p<0.01",reduced concentrations
same,VEGF concentration (ELISA),"[3]; compared with control, p<0.01 IL-1R antagonist, p<0.001 canakinumab",reduced concentrations
"gevokizumab: high-affinity, humanized monoclonal antibody of the IgG2 isotype to interleukin-1β",animals with significant reduction in tumor volume,SW480; one of two experiments,100 % of animals
same,animals with slower tumor growth,"SW480; second experiment, compared to isotype control",80 % of animals
same,Bioavailability,[4]; administered subcutaneously,about 56%
same,pharmacokinetic model,[4]; after subcutaneous administration,linear two-compartment model with first order absorption
same,reduction of hsCRP,hsCRP,up to 45%
